Km and kcat data for 2 compounds are collected here from publication PMC10263468, “Biosynthesis of cannabigerol and cannabigerolic acid: the gateways to further cannabinoid production” (Synthetic Biology, 2023).

Common to all, as to test: endpoint assay, LC-MS quantification of product
Data set [1] addresses T1, AtaPT (Aspergillus terreus, UniProt A0A1B0UHJ4, E91D).
T1 construct: gene PT; N-terminal His6 tag (pETM11), codon-optimised synthetic gene, E. coli ArcticExpress (DE3), purified
The data set is classed as biochemical. The settings on record: read-out: Apparent Km; co-substrate GPP 1 mM; 1 μM enzyme; 25 mM Tris pH 8, 150 mM NaCl, 5% glycerol; 25°C; approximate constant. From the text:
(§1) endpoint assay, LC-MS quantification of product on AtaPT

Data set [2] has as its target T2, AtaPT (Aspergillus terreus, UniProt A0A1B0UHJ4, E91A).
T2 construct: gene PT; N-terminal His6 tag (pETM11), codon-optimised synthetic gene, E. coli ArcticExpress (DE3), purified
Format: biochemical. The settings on record: read-out: Apparent Km; co-substrate GPP 1 mM; 1 μM enzyme; 25 mM Tris pH 8, 150 mM NaCl, 5% glycerol; 25°C; approximate constant.
Text: as §1

Data set [3] addresses T3, AtaPT (Aspergillus terreus, UniProt A0A1B0UHJ4, E91Q).
T3 construct: gene PT; N-terminal His6 tag (pETM11), codon-optimised synthetic gene, E. coli ArcticExpress (DE3), purified
Format: biochemical. The settings on record: read-out: Apparent Km; co-substrate GPP 1 mM; 1 μM enzyme; 25 mM Tris pH 8, 150 mM NaCl, 5% glycerol; 25°C; approximate constant.
Text: as §1

The test system of data set [4] is CCCCCc1cc(O)cc(O)c1C(=O)O. The data set is classed as biochemical, Aspergillus terreus. To be noted: co-substrate GPP 1 mM, 10 μM enzyme, 25 mM Tris pH 8, 150 mM NaCl, 5% glycerol, 25°C, approximate constant (high enzyme concentration).
Text: as §1

T3 sequence (A0A1B0UHJ4 whole entry E91Q): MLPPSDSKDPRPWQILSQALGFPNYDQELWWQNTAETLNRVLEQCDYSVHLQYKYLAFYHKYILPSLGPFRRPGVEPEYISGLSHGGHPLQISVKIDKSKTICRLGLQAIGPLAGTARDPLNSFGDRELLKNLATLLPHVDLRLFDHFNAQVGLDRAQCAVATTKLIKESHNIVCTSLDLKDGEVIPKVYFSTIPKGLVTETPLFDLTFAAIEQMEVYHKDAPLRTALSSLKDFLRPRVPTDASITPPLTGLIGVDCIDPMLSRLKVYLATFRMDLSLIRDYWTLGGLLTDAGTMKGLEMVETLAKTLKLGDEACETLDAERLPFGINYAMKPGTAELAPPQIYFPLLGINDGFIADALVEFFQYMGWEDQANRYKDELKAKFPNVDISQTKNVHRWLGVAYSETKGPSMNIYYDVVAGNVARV
T2 sequence (A0A1B0UHJ4 whole entry E91A): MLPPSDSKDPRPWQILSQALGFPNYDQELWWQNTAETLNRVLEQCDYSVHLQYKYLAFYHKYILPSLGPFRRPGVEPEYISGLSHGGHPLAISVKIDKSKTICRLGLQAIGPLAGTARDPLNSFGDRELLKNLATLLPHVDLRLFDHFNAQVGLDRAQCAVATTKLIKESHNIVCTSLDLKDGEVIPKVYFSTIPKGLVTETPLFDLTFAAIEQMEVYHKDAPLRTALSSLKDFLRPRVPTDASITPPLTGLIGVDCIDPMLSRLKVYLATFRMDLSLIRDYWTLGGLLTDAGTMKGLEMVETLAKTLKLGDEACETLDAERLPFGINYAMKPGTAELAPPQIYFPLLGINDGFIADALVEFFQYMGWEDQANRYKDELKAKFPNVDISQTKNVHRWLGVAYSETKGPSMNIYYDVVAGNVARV
T1 sequence (A0A1B0UHJ4 whole entry E91D): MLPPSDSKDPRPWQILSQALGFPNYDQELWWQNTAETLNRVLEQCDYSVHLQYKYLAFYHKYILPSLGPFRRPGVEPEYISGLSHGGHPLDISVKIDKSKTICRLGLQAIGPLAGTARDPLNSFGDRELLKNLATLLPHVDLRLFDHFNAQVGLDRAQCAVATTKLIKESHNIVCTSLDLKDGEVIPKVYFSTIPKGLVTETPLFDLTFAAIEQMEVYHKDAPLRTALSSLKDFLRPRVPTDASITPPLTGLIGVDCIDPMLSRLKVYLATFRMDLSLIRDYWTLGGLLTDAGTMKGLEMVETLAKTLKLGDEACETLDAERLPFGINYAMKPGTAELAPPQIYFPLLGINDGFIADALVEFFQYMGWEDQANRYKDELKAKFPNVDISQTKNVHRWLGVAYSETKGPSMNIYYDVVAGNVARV

For the compound `CCCCCc1cc(O)cc(O)c1C(=O)O` [OA, olivetolic acid], the Km (commonly the concentration of substrate that gives half-maximal velocity) at AtaPT [1] was 266 ± 44 µM; on AtaPT [2], 332 ± 96 µM; on AtaPT [3], 94 ± 32 µM.

AtaPT (Aspergillus terreus): in data set [4], the Michaelis-Menten constant (Km) amounted to 1083 ± 126 µM and the catalytic constant (kcat) (usually the maximal rate divided by the concentration of active sites) was 0.000147 ± 5e-06 s⁻¹.
